Experimental data reported in the supplement of paper PMC8882468.
± gives the standard deviation of the averaged measurements.

What follows are molecules tested on HCI-003.E2 (organoid from an ER-positive breast cancer xenograft) (assay: CTG-3D luminescence at 96 h relative to day-0 seeding control (ratio to day 0); higher = more growth / less cytotoxicity; PDxO 3D drug screen (set 2), 96 h, CTG-3D normalised to day-0 seeding control.). Details: 625 fM.

In order of falling “CTG-3D luminescence at 96 h” value:
1. CS(=O)(=O)CCNCc1ccc(-c2ccc3ncnc(Nc4ccc(OCc5cccc(F)c5)c(Cl)c4)c3c2)o1 [lapatinib]  2.95 ± 1.1
2. CC(=O)c1c(C)c2cnc(Nc3ccc(N4CCNCC4)cn3)nc2n(C2CCCC2)c1=O [palbociclib]  2.88 ± 0.87
3. Cc1c(CN2CCN(C(=O)[C@H](C)O)CC2)sc2c(N3CCOCC3)nc(-c3cnc(N)nc3)nc12 [apitolisib]  2.82 ± 0.69
4. CCOc1ccn(-c2ccc(F)cc2)c(=O)c1C(=O)Nc1ccc(Oc2ccnc(N)c2Cl)c(F)c1 [ASLAN002]  2.78 ± 0.59
5. Nc1cc(C(F)(F)F)c(-c2cc(N3CCOCC3)nc(N3CCOCC3)n2)cn1 [buparlisib]  2.71 ± 0.7

These molecules were tested on HCI-024 (organoid from a breast cancer xenograft) in the same assay as above. Details: 12.5 pM; days in culture: 202.

In order of rising “CTG-3D luminescence at 96 h” value:
1. CC(=O)c1c(C)c2cnc(Nc3ccc(N4CCNCC4)cn3)nc2n(C2CCCC2)c1=O [palbociclib]  0.831
2. Nc1cc(C(F)(F)F)c(-c2cc(N3CCOCC3)nc(N3CCOCC3)n2)cn1 [buparlisib]  0.94
3. CS(=O)(=O)CCNCc1ccc(-c2ccc3ncnc(Nc4ccc(OCc5cccc(F)c5)c(Cl)c4)c3c2)o1 [lapatinib]  1.02
4. CC(C)n1nc(-c2ccc3oc(N)nc3c2)c2c(N)ncnc21 [sapanisertib]  1.13
5. CCOc1ccn(-c2ccc(F)cc2)c(=O)c1C(=O)Nc1ccc(Oc2ccnc(N)c2Cl)c(F)c1 [ASLAN002]  1.14
6. Cc1c(CN2CCN(C(=O)[C@H](C)O)CC2)sc2c(N3CCOCC3)nc(-c3cnc(N)nc3)nc12 [apitolisib]  1.67
7. C[C@@H](Nc1cc(F)cc(F)c1)c1cc(C(=O)N(C)C)cc2c(=O)cc(N3CCOCC3)oc12 [AZD-8186]  1.88

Same assay, conditions: 12.5 pM; days in culture: 231

In order of falling “CTG-3D luminescence at 96 h” value:
1. C[C@@H](Nc1cc(F)cc(F)c1)c1cc(C(=O)N(C)C)cc2c(=O)cc(N3CCOCC3)oc12 [AZD-8186]  1.33
2. CC(C)n1nc(-c2ccc3oc(N)nc3c2)c2c(N)ncnc21 [sapanisertib]  1.11
3. Cc1c(CN2CCN(C(=O)[C@H](C)O)CC2)sc2c(N3CCOCC3)nc(-c3cnc(N)nc3)nc12 [apitolisib]  1.04
4. Nc1cc(C(F)(F)F)c(-c2cc(N3CCOCC3)nc(N3CCOCC3)n2)cn1 [buparlisib]  0.962
5. CC(=O)c1c(C)c2cnc(Nc3ccc(N4CCNCC4)cn3)nc2n(C2CCCC2)c1=O [palbociclib]  0.919
6. CCOc1ccn(-c2ccc(F)cc2)c(=O)c1C(=O)Nc1ccc(Oc2ccnc(N)c2Cl)c(F)c1 [ASLAN002]  0.919
7. CS(=O)(=O)CCNCc1ccc(-c2ccc3ncnc(Nc4ccc(OCc5cccc(F)c5)c(Cl)c4)c3c2)o1 [lapatinib]  0.876

Same assay, conditions: 12.5 pM; days in culture: 254

In order of falling “CTG-3D luminescence at 96 h” value:
1. CCOc1ccn(-c2ccc(F)cc2)c(=O)c1C(=O)Nc1ccc(Oc2ccnc(N)c2Cl)c(F)c1 [ASLAN002]  2.48
2. CC(C)n1nc(-c2ccc3oc(N)nc3c2)c2c(N)ncnc21 [sapanisertib]  2.43
3. Nc1cc(C(F)(F)F)c(-c2cc(N3CCOCC3)nc(N3CCOCC3)n2)cn1 [buparlisib]  1.89
4. CS(=O)(=O)CCNCc1ccc(-c2ccc3ncnc(Nc4ccc(OCc5cccc(F)c5)c(Cl)c4)c3c2)o1 [lapatinib]  1.47
5. Cc1c(CN2CCN(C(=O)[C@H](C)O)CC2)sc2c(N3CCOCC3)nc(-c3cnc(N)nc3)nc12 [apitolisib]  1.36
6. CC(=O)c1c(C)c2cnc(Nc3ccc(N4CCNCC4)cn3)nc2n(C2CCCC2)c1=O [palbociclib]  1.24
7. C[C@@H](Nc1cc(F)cc(F)c1)c1cc(C(=O)N(C)C)cc2c(=O)cc(N3CCOCC3)oc12 [AZD-8186]  1.17

Same assay, conditions: 0.00025 µM; days in culture: 202

In order of falling “CTG-3D luminescence at 96 h” value:
1. Nc1cc(C(F)(F)F)c(-c2cc(N3CCOCC3)nc(N3CCOCC3)n2)cn1 [buparlisib]  1.8
2. CS(=O)(=O)CCNCc1ccc(-c2ccc3ncnc(Nc4ccc(OCc5cccc(F)c5)c(Cl)c4)c3c2)o1 [lapatinib]  1.45
3. Cc1c(CN2CCN(C(=O)[C@H](C)O)CC2)sc2c(N3CCOCC3)nc(-c3cnc(N)nc3)nc12 [apitolisib]  1.17
4. CCOc1ccn(-c2ccc(F)cc2)c(=O)c1C(=O)Nc1ccc(Oc2ccnc(N)c2Cl)c(F)c1 [ASLAN002]  1.03
5. C[C@@H](Nc1cc(F)cc(F)c1)c1cc(C(=O)N(C)C)cc2c(=O)cc(N3CCOCC3)oc12 [AZD-8186]  0.916
6. CC(C)n1nc(-c2ccc3oc(N)nc3c2)c2c(N)ncnc21 [sapanisertib]  0.881
7. CC(=O)c1c(C)c2cnc(Nc3ccc(N4CCNCC4)cn3)nc2n(C2CCCC2)c1=O [palbociclib]  0.703

Same assay, conditions: 0.00025 µM; days in culture: 231

In order of rising “CTG-3D luminescence at 96 h” value:
1. CC(=O)c1c(C)c2cnc(Nc3ccc(N4CCNCC4)cn3)nc2n(C2CCCC2)c1=O [palbociclib]  0.896
2. CS(=O)(=O)CCNCc1ccc(-c2ccc3ncnc(Nc4ccc(OCc5cccc(F)c5)c(Cl)c4)c3c2)o1 [lapatinib]  1.18
3. CCOc1ccn(-c2ccc(F)cc2)c(=O)c1C(=O)Nc1ccc(Oc2ccnc(N)c2Cl)c(F)c1 [ASLAN002]  1.2
4. C[C@@H](Nc1cc(F)cc(F)c1)c1cc(C(=O)N(C)C)cc2c(=O)cc(N3CCOCC3)oc12 [AZD-8186]  1.25
5. Cc1c(CN2CCN(C(=O)[C@H](C)O)CC2)sc2c(N3CCOCC3)nc(-c3cnc(N)nc3)nc12 [apitolisib]  1.28
6. Nc1cc(C(F)(F)F)c(-c2cc(N3CCOCC3)nc(N3CCOCC3)n2)cn1 [buparlisib]  1.28
7. CC(C)n1nc(-c2ccc3oc(N)nc3c2)c2c(N)ncnc21 [sapanisertib]  1.3

Same assay, conditions: 0.00025 µM; days in culture: 254

In order of falling “CTG-3D luminescence at 96 h” value:
1. C[C@@H](Nc1cc(F)cc(F)c1)c1cc(C(=O)N(C)C)cc2c(=O)cc(N3CCOCC3)oc12 [AZD-8186]  1.68
2. CC(=O)c1c(C)c2cnc(Nc3ccc(N4CCNCC4)cn3)nc2n(C2CCCC2)c1=O [palbociclib]  1.36
3. CC(C)n1nc(-c2ccc3oc(N)nc3c2)c2c(N)ncnc21 [sapanisertib]  1.09
4. Cc1c(CN2CCN(C(=O)[C@H](C)O)CC2)sc2c(N3CCOCC3)nc(-c3cnc(N)nc3)nc12 [apitolisib]  0.995
5. CS(=O)(=O)CCNCc1ccc(-c2ccc3ncnc(Nc4ccc(OCc5cccc(F)c5)c(Cl)c4)c3c2)o1 [lapatinib]  0.96
6. Nc1cc(C(F)(F)F)c(-c2cc(N3CCOCC3)nc(N3CCOCC3)n2)cn1 [buparlisib]  0.93
7. CCOc1ccn(-c2ccc(F)cc2)c(=O)c1C(=O)Nc1ccc(Oc2ccnc(N)c2Cl)c(F)c1 [ASLAN002]  0.889

Same assay, conditions: 0.005 µM; days in culture: 202

In order of falling “CTG-3D luminescence at 96 h” value:
1. CS(=O)(=O)CCNCc1ccc(-c2ccc3ncnc(Nc4ccc(OCc5cccc(F)c5)c(Cl)c4)c3c2)o1 [lapatinib]  1.36
2. CCOc1ccn(-c2ccc(F)cc2)c(=O)c1C(=O)Nc1ccc(Oc2ccnc(N)c2Cl)c(F)c1 [ASLAN002]  1.19
3. CC(=O)c1c(C)c2cnc(Nc3ccc(N4CCNCC4)cn3)nc2n(C2CCCC2)c1=O [palbociclib]  1.17
4. Cc1c(CN2CCN(C(=O)[C@H](C)O)CC2)sc2c(N3CCOCC3)nc(-c3cnc(N)nc3)nc12 [apitolisib]  1
5. Nc1cc(C(F)(F)F)c(-c2cc(N3CCOCC3)nc(N3CCOCC3)n2)cn1 [buparlisib]  0.863
6. C[C@@H](Nc1cc(F)cc(F)c1)c1cc(C(=O)N(C)C)cc2c(=O)cc(N3CCOCC3)oc12 [AZD-8186]  0.693
7. CC(C)n1nc(-c2ccc3oc(N)nc3c2)c2c(N)ncnc21 [sapanisertib]  0.616

Same assay, conditions: 0.005 µM; days in culture: 231

For `CC(C)n1nc(-c2ccc3oc(N)nc3c2)c2c(N)ncnc21` [sapanisertib], the “CTG-3D luminescence at 96 h” value was 1.01.
